The source of these data is patent publication US4452991A, “Flavan derivatives useful for impairing RNA virus replication in a cell” (priority 1979, dated 1984).

One experiment concerns virus. Description: Intranasal administration simulation in vitro (compound on lid of petri dish, inhibition of plaque formation). It counts as cell-based. Particulars: 1 μg compound spread on inside of petri dish lid, agarose-covered cells. The text has this:
(§1) Activity may be detected by the plaque inhibition (PI) test and measured by the plaque reduction (PR) test. Both assays involve the formation of a monolayer cell culture in a petri dish followed by infection with a virus suspension, and then overlaying the culture with nutrient agarose in the form of a gel. This gel ensures that there is no spread of virus throughout the culture and thus areas of localised cell destruction of plaques are formed.
In the plaque inhibition test a filter paper disc which holds 0.01 ml when impregnated with a solution of compound is placed on top of the agarose gel. The compound may then diffuse throughout the gel so that its greatest concentration will be around the disc and its lowest concentration towards the periphery of the petri dish. The efficacy of the compound may be detected by observing the zone inhibition of plaque formation.
Petri dishes were prepared, as for the plaque inhibition test and the confluent sheet of cells was covered with a layer of agarose gel. The compound, trans-3-methylflavan (1 μg) was dissolved in ethanol, and applied to the lids of the petri dishes. When the ethanol had evaporated, leaving the compound spread over the inside of the lids, these were replaced on the petri dishes.
Turning to `C[C@@H]1Cc2ccccc2O[C@H]1c1ccccc1` (relative stereo) [Example 1, trans-3-methylflavan], the “inhibition of plaque formation” value is “total inhibition of plaque formation”.

The subject of the next experiment is virus. Description: plaque reduction (PR) test, antiviral activity in monolayer cell culture. It counts as cell-based. Particulars: compound in nutrient agarose overlay, 50% effective dose vs control, read-out: PR (ED50 /μM). As to the method: as §1
Detectable activity is measured with the plaque reduction assay. A range of concentrations of compound of known molarity are incorporated in the nutrient agarose overlay. Plaque suppression is proportional to compound concentration. Plaque numbers are expressed as percentages of a control, and a dose responsecurve may be drawn. From this curve 50% of the effective dose (ED50) may be estimated.
`C[C@@H]1Cc2ccccc2O[C@H]1c1ccccc1` (relative stereo) [Example 1, trans-3-methylflavan]: the EC50 stood at 0.125 µM.
Still for that read-out and setting: the same measure for `C[C@@H]1Cc2cc(Cl)ccc2O[C@H]1c1ccc(Cl)cc1` (relative stereo) [Example 2, trans-4',6-dichloro-3-methylflavan]: 0.135 µM.
Regarding `C[C@H]1Cc2ccccc2O[C@H]1c1ccccc1` (relative stereo) [Example 3, cis-3-methylflavan], the EC50 was 1.1 µM.
For `c1ccc2c(c1)C[C@H]1Cc3ccccc3[C@H]1O2` (relative stereo) [Example 5, cis-4b,10,10a,11-tetrahydrobenz(b)indeno(2,1-e)pyran], the EC50 stood at 0.38 µM.
Still for that read-out and setting: the same measure for `c1ccc2c(c1)C[C@@H]1CCc3ccccc3[C@@H]1O2` (relative stereo) [Example 6, cis-5,6,6a,12a-tetrahydro-7H-benzo(c)xanthene]: 0.03 µM.
With `Clc1cc(Cl)c2c(c1)C[C@@H]1CCc3ccccc3[C@@H]1O2` (relative stereo) [Example 7, cis-9,11-dichloro-5,6,6a,12a-tetrahydro-7H-benzo(c)xanthene], the EC50 came out at 6 µM.
`Clc1cccc2c1O[C@@H]1c3ccccc3C[C@@H]1C2` (relative stereo) [Example 8, cis-6-chloro-4b,10,10a,11-tetrahydrobenz(b)indeno(2,1-e)pyran]: the EC50 is 1.5 µM.
On to `Clc1cc(Cl)c2c(c1)C[C@H]1Cc3ccccc3[C@H]1O2` (relative stereo) [Example 9, Cis-6,8-dichloro-4b,10,10a,11-tetrahydrobenz(b)indeno(2,1-e)pyran], for which the EC50 was 0.57 µM.
